Laboratory results from PubChem BioAssay AID330 (DTP/NCI, 2004).
“And” between values parts separate entries of the source, which are not always exact repeats. Equal values may be shown once. Toxic doses and inconclusive results are not listed. How the source made its calls: active means survival T/C of 150% or more; inactive means T/C below 125% in these data.

System: P388 leukemia ip, CD2F1 mice, survival T/C
Assay: NCI In Vivo Anticancer Drug Screen. Data for tumor model P388 Leukemia (intraperitoneal) in CD2F1 (CDF1) mice
Conditions: endpoint: median survival time, higher = longer survival
In short: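 Mice carrying the transplanted tumor received test compound or vehicle. Survival was recorded in each group, and the value is the treated-group measurement divided by that of the vehicle-treated control group.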

[1] = dose: 100.0 mg/kg/injection, schedule: Q01DX005 (ip), vehicle: Klucel (hydroxypropylcellulose) (HPC)

Measured: T/C

Nc1cc2c(cc1C(=O)N1CCc3ccccc31)OCO2
inactive: dose: 25.0 mg/kg/injection, schedule: Q01DX009 (ip), vehicle: other 106 % of control | dose: 50.0 mg/kg/injection, schedule: Q01DX009 (ip), vehicle: other 100 % of control | dose: 100.0 mg/kg/injection, schedule: Q01DX009 (ip), vehicle: other 97 % of control | dose: 200.0 mg/kg/injection, schedule: Q01DX009 (ip), vehicle: other 90 % of control

CCOc1ccc2nc3cc(N=Nc4ccc5c(N)c6cc(OCC)ccc6nc5c4)ccc3c(N)c2c1
inactive: dose: 25.0 mg/kg/injection, schedule: Q01DX009 (ip), vehicle: saline with Tween-80 98 % of control | dose: 50.0 mg/kg/injection, schedule: Q01DX009 (ip), vehicle: saline with Tween-80 108 % of control | dose: 100.0 mg/kg/injection, schedule: Q01DX009 (ip), vehicle: saline with Tween-80 120 % of control | dose: 400.0 mg/kg/injection, schedule: Q01DX009 (ip), vehicle: saline with Tween-80 120 % of control

Nc1nc(N)c(N=O)c(Nc2ccc(Cl)c(Cl)c2)n1
inactive: dose: 100.0 mg/kg/injection, schedule: Q04DX003 (ip), vehicle: saline with Tween-80 100 % of control | dose: 200.0 mg/kg/injection, schedule: Q04DX003 (ip), vehicle: saline with Tween-80 90 % of control

CCN(CC)Cc1c(O)c(N=Nc2cccc3ccccc23)cc2ccccc12
inactive: dose: 3.0 mg/kg/injection, schedule: Q01DX009 (ip), vehicle: Klucel (hydroxypropylcellulose) (HPC) 111 % of control | dose: 6.0 mg/kg/injection, schedule: Q01DX009 (ip), vehicle: Klucel (hydroxypropylcellulose) (HPC) 107 % of control | dose: 12.0 mg/kg/injection, schedule: Q01DX009 (ip), vehicle: Klucel (hydroxypropylcellulose) (HPC) 104 % of control | dose: 12.5 mg/kg/injection, schedule: Q01DX009 (ip), vehicle: Klucel (hydroxypropylcellulose) (HPC) 113 % of control

CCOC(=O)CCC1=C(C)c2cc3[n-]c(cc4nc(cc5[n-]c(cc1n2)c(CCC(=O)OCC)c5C)C=C4C)cc3C.[Ni+2]
inactive: dose: 50.0 mg/kg/injection, schedule: Q01DX005 (ip), vehicle: Klucel (hydroxypropylcellulose) (HPC) 96 % of control | [1] 92 % of control

CC1CC=CCC1C1NC(C(=O)O)CS1 (stereo not drawn)
inactive: dose: 50.0 mg/kg/injection, schedule: Q01DX009 (ip), vehicle: suspension in saline 106 % of control | dose: 100.0 mg/kg/injection, schedule: Q01DX009 (ip), vehicle: suspension in saline 107 % of control and 88 % of control | dose: 200.0 mg/kg/injection, schedule: Q01DX009 (ip), vehicle: suspension in saline 98 % of control and 96 % of control

CC(C)(C)C1=CC(=CC=C2C=CN(CCCCCCCCCCCO)C=C2)C=C(C(C)(C)C)C1=O
inactive: dose: 60.0 mg/kg/injection, schedule: Q01DX005 (ip), vehicle: saline with Tween-80 108 % of control | dose: 120.0 mg/kg/injection, schedule: Q01DX005 (ip), vehicle: saline with Tween-80 107 % of control | dose: 240.0 mg/kg/injection, schedule: Q01DX005 (ip), vehicle: saline with Tween-80 110 % of control

N#CCCN(CCC#N)Cc1c(O)ccc2ccccc12
inactive: dose: 50.0 mg/kg/injection, schedule: Q01DX005 (ip), vehicle: saline with Tween-80 104 % of control | dose: 100.0 mg/kg/injection, schedule: Q01DX005 (ip), vehicle: saline with Tween-80 114 % of control | dose: 200.0 mg/kg/injection, schedule: Q01DX005 (ip), vehicle: saline with Tween-80 117 % of control

O=C1NC(=O)C2(CCC(O)C2)c2cc[n+]([O-])cc21 (stereo not drawn)
inactive: dose: 12.5 mg/kg/injection, schedule: Q01DX005 (ip), vehicle: saline 96 % of control | dose: 25.0 mg/kg/injection, schedule: Q01DX005 (ip), vehicle: saline 105 % of control | dose: 50.0 mg/kg/injection, schedule: Q01DX005 (ip), vehicle: saline 105 % of control | dose: 100.0 mg/kg/injection, schedule: Q01DX005 (ip), vehicle: saline 100 % of control

Cc1ccc2ncc(C)c(/C=C/c3ccc(N(C)C)cc3)c2c1
inactive: dose: 50.0 mg/kg/injection, schedule: Q01DX001 (ip), vehicle: saline with Tween-80 108 % of control | dose: 100.0 mg/kg/injection, schedule: Q01DX001 (ip), vehicle: saline with Tween-80 112 % of control | dose: 200.0 mg/kg/injection, schedule: Q01DX001 (ip), vehicle: saline with Tween-80 122 % of control

C=C1C(=O)OC2/C=C(\C)C(OC(C)=O)C3OC3C(C)(O)CC(OC(=O)/C(C)=C/C)C12 (stereo not drawn)
inactive: dose: 10.0 mg/kg/injection, schedule: Q01DX009 (ip), vehicle: saline with Tween-80 99 % of control | dose: 20.0 mg/kg/injection, schedule: Q01DX009 (ip), vehicle: saline with Tween-80 104 % of control | dose: 40.0 mg/kg/injection, schedule: Q01DX009 (ip), vehicle: saline with Tween-80 107 % of control

CN(C)/C=C/C=C1\CCCC1=O
inactive: dose: 50.0 mg/kg/injection, schedule: Q04DX002 (ip), vehicle: saline with Tween-80 103 % of control | dose: 100.0 mg/kg/injection, schedule: Q04DX002 (ip), vehicle: saline with Tween-80 100 % of control | dose: 200.0 mg/kg/injection, schedule: Q04DX002 (ip), vehicle: saline with Tween-80 108 % of control

Nc1nsc2nc3ccccc3cc12
inactive: dose: 6.25 mg/kg/injection, schedule: Q01DX005 (ip), vehicle: Klucel (hydroxypropylcellulose) (HPC) 102 % of control | dose: 12.5 mg/kg/injection, schedule: Q01DX005 (ip), vehicle: Klucel (hydroxypropylcellulose) (HPC) 100 % of control | dose: 25.0 mg/kg/injection, schedule: Q01DX005 (ip), vehicle: Klucel (hydroxypropylcellulose) (HPC) 99 % of control | [1] 112 % of control | dose: 200.0 mg/kg/injection, schedule: Q01DX005 (ip), vehicle: Klucel (hydroxypropylcellulose) (HPC) 102 % of control
